In patent publication US10870624B2, “Histone deacetylase inhibitors” (Karus Therapeutics Limited, priority 2013, dated 2020) one finds IC50 data, which are given here for seven compounds.

Each structure is given as a SMILES string.

One experiment concerns the target T1, Human HDAC1 (Homo sapiens, UniProt Q13547).
T1 construct: full length with C-terminal His-tag and C-terminal FLAG-tag; His-tag (C); FLAG-tag (C); made in house; host or cells: baculovirus expression system (insect cells)
In words: Biochemical HDAC assay with acetylated AMC-labeled peptide substrate, HDAC1. Conditions: HDAC1, 2 hours at 30° C.; read-out: IC50 (nM) HDAC 1. As to the method: (§1) Activity against all zinc-dependent HDACs 1 to 11 was assessed by using an acetylated AMC-labeled peptide substrate. The substrate RHKKAc was used for all class I and IIb HDACs; for […], the substrate used was RHKAcKAc. […] All assays were based on the AMC-labeled substrate and developer combination.
(§2) The protocol involved a two-step reaction: first, the substrate with the acetylated lysine side chain is incubated with a sample containing HDAC activity, to produce the deacetylated products, which are then digested in the second step by the addition of developer to produce the fluorescent signal proportional to the amount of deacetylated substrates.
Human HDAC1 (GenBank Accession No. NM_004964), full length with C-terminal His-tag and C-terminal FLAG-tag, MW=56 kDa, expressed in baculovirus expression system.
(§3) Before use, 1 mg/mL BSA and DMSO are added.
(§4) Incubate for 2 hours at 30° C.
(§5) Stage 1: Deacetylation of substrate by incubation of HDAC enzymes with compounds
(§6) Stage 2: Development by addition of Developer to digest the deacetylated substrate, and generate the fluorescent color; Detection: 360/460 Ex/Em

A further experiment addresses T2, Recombinant human HDAC6 (Homo sapiens, UniProt Q9UBN7).
T2 construct: full length, MW=180 kDa, was expressed by baculovirus in Sf9 insect cells; GST (N); made in house; host or cells: Sf9 insect cells (baculovirus)
T2 sequence (Q9UBN7 1-1215): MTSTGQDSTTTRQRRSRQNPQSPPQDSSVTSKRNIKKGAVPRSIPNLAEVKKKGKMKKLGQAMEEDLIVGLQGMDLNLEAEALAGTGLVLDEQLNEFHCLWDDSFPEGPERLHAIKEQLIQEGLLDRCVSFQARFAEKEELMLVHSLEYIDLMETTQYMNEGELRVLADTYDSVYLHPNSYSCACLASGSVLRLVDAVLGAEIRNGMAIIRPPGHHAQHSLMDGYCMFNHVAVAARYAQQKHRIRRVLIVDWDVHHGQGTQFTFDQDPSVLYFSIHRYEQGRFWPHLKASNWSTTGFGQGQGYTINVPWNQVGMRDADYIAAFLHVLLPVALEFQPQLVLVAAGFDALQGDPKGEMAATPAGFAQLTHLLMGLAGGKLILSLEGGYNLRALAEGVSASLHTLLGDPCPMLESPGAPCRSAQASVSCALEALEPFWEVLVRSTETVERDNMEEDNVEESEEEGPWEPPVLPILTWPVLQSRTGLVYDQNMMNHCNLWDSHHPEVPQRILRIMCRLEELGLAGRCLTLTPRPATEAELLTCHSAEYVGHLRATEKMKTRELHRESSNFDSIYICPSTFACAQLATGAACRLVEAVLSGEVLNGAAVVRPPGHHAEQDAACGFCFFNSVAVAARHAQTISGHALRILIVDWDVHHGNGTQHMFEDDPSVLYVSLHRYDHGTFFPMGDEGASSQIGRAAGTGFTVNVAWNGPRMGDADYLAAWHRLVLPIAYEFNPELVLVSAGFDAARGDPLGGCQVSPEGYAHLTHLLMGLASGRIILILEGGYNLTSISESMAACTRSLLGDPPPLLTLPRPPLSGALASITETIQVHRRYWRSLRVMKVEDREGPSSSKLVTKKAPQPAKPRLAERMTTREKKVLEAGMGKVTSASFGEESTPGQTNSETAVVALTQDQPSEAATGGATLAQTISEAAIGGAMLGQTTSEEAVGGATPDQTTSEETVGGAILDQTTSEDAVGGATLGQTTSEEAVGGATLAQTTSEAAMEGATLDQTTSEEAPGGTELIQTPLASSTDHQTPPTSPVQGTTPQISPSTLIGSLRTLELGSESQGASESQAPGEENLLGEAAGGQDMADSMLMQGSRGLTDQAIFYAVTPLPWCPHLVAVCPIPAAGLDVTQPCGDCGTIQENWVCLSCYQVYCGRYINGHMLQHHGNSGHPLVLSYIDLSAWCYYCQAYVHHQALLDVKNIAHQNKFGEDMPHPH
In words: Biochemical HDAC assay with acetylated AMC-labeled peptide substrate, HDAC6. The following applies: HDAC6, 2 hours at 30° C.; read-out: IC50 (nM) HDAC 6. The method, then: as §1, §2
Recombinant human HDAC6 (GenBank Accession No. BC069243), full length, MW=180 kDa, was expressed by baculovirus in Sf9 insect cells using an N-terminal GST tag.
as §3, §4, §5, §6

T1 sequence (Q13547 whole entry): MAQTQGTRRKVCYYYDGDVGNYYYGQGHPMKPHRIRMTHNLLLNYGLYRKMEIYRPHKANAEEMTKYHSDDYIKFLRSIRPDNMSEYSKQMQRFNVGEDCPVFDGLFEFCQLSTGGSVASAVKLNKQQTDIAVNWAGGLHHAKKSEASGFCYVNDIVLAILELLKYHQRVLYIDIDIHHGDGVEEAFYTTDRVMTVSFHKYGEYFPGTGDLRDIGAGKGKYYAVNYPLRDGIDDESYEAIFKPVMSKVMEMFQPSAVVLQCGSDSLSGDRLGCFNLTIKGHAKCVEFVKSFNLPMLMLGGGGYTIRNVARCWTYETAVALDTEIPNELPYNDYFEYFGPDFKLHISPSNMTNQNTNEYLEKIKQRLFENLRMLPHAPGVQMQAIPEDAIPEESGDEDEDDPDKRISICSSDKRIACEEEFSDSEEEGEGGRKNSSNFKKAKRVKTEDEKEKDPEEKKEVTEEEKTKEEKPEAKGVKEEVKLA

In the case of `O=C(NO)c1ccc(CN(c2ccccn2)c2ccccn2)cc1` [Example A, 4-{[Bis(pyridin-2-yl)amino]methyl}-N-hydroxybenzamide], the values for the IC50 on Human HDAC1 and on Recombinant human HDAC6 were above 10000 nM and at most 500 nM, respectively.
Take `Cc1nsc(N(Cc2ccc(C(=O)NO)c(F)c2)c2nc(C)ns2)n1` [Example B, 4-{[Bis(3-methyl-1,2,4-thiadiazol-5-yl)amino]methyl}-2-fluoro-N-hydroxybenzamide]: the IC50 at Human HDAC1 was above 10000 nM; on Recombinant human HDAC6, at most 500 nM.
Take `Cc1noc(N(Cc2ccc(C(=O)NO)c(F)c2)c2nc(C)ns2)n1` [Example C, 2-Fluoro-N-hydroxy-4-{[(3-methyl-1,2,4-oxadiazol-5-yl)(3-methyl-1,2,4-thiadiazol-5-yl)amino]methyl}benzamide]: the figures for the IC50 at Human HDAC1 and on Recombinant human HDAC6 were 1000 to 10000 nM and at most 500 nM, respectively.
Take `Cc1noc(N(Cc2ccc(C(=O)NO)cc2)c2ccccn2)n1` [Example D, N-Hydroxy-4-(((3-methyl-1,2,4-oxadiazol-5-yl)(pyridin-2-yl)amino)methyl)benzamide]: the IC50 on Human HDAC1 is 1000 to 10000 nM; at Recombinant human HDAC6, at most 500 nM.
As for `Cn1ccc(N(Cc2ccc(C(=O)NO)cc2)c2ccccn2)n1` [Example E, N-Hydroxy-4-(((1-methyl-1H-pyrazol-3-yl)(pyridin-2-yl)amino)methyl)benzamide], the IC50 on Human HDAC1 is 1000 to 10000 nM; at Recombinant human HDAC6, at most 500 nM.
For `O=C(NO)c1ccc(CN(c2ccccn2)c2nncs2)cc1` [Example F, N-Hydroxy-4-((pyridin-2-yl(1,3,4-thiadiazol-2-yl)amino)methyl)benzamide], the 50% inhibitory concentration (IC50) was above 10000 nM on Human HDAC1 and at most 500 nM on Recombinant human HDAC6.
For the compound `O=C(NO)c1ccc(CN(c2ccccn2)c2cnccn2)cc1` [Example G, N-Hydroxy-4-((pyrazin-2-yl(pyridin-2-yl)amino)methyl)benzamide], the results for the 50% inhibitory concentration (IC50) on Human HDAC1 and on Recombinant human HDAC6 were above 10000 nM and at most 500 nM, respectively.

As usually defined, the IC50 is the point on the concentration scale where inhibition reaches its midpoint.
